Measured values: US20230181536A1, “ANTICANCER COMBINATION THERAPY WITH N-(1-ACRYLOYL-AZETIDIN-3-YL)-2-((1H-INDAZOL-3-YL)AMINO)METHYL)-1H-IMIDAZOLE-5-CARBOXAMIDE INHIBITOR OF KRAS-G12C” (TAIHO PHARMACEUTICAL CO., LTD., priority 2020, published 2023)

Biological target: T1, KRAS G12C (Homo sapiens, UniProt P01116, G12C)
T1 construct: KRAS G12C (amino acid region: 1-169)
Test: Inhibitory activity on the KRAS G12C nucleotide (GDP-GTP) exchange reaction
Format: biochemical
Conditions: Bodipy FL GDP-bound KRAS G12C 25 nM; preincubation at 25° C. for 4 hours; SOS1 100 nM, GppNHp 1 μM, reaction for 30 minutes
Procedure: Test Example 2: Evaluation of Inhibitory Activity of Compounds on the KRAS G12C Nucleotide (GDP-GTP) Exchange Reaction
The inhibitory activity of compounds on the exchange reaction of GDP into GppNHp in Bodipy (trademark) FL-bound KRAS G12C was examined by fluorescence measurement using human recombinant KRAS G12C and SOS1 proteins.
For the preparation of KRAS G12C to which Bodipy FL GDP was bound, first, 50 µM KRAS G12C (amino acid region: 1-169) and 1 mM Bodipy FL GDP (Invitrogen, G22360) were incubated for 1 hour in a buffer (20 mM Tris-HCl (pH 7.5), 50 mM NaCl, 1 mM DTT) in ice in the presence of 2.5 mM EDTA. Thereafter, MgCl2 with a final concentration of 10 mM was added, and the mixture was incubated at room temperature for 30 minutes. The protein was allowed to pass through a NAP-5 column to remove free nucleotides and was used for compound evaluation.
For the measurement of the inhibitory activity of compounds on nucleotide exchange reaction, first, the compound of the disclosure was diluted stepwise with dimethyl sulfoxide (DMSO). Subsequently, a solution of the gradually diluted compound of the disclosure in DMSO (the final concentration of DMSO: 5%) and KRAS G12C (25 nM) bound to Bodipy FL GDP were added to a reaction buffer (20 mM Tris-HCl (pH 7.5), 100 mM NaCl, 1 mM MgCl2, 2 mM DTT, 0.1% Tween20), followed by preincubation at 25° C. for 4 hours. Thereafter, Son of Sevenless Homolog 1 (SOS1, amino acid region: 564-1049) and GppNHp (GMPPNP, Jena Bioscience GmbH, NU-401-50) were added such that their final concentration was 100 nM and 1 μM respectively, followed by reaction for 30 minutes. The change in fluorescence intensity of Bodipy FL (excitation wavelength: 485 nm, fluorescence wavelength: 520 nm) immediately after the start of reaction and after 30 minutes from the start of reaction was standardized. The signal value for only DMSO was determined to be 0% inhibition, and the signal value for no addition of GppNHp was determined to be 100% inhibition. The compound concentration at which 50% inhibition is achieved was determined to be the IC50 (nM) and was calculated.

T1 sequence (P01116 1-169 isoform P01116-2 G12C): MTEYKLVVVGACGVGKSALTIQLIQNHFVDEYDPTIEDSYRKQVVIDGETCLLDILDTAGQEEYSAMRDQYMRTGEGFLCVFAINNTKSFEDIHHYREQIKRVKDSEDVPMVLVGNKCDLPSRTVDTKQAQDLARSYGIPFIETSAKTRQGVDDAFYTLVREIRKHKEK

C=CC(=O)N1CC(NC(=O)c2c(Cl)nc(CNc3n[nH]c4cc(Cl)c(C(C)(C)C)cc34)n2C(C)C)C1 [Example 35, N-(1-acryloylazetidin-3-yl)-2-(((5-(tert-butyl)-6-chloro-1H-indazol-3-yl)amino)methyl)-4-chloro-1-isopropyl-1H-imidazole-5-carboxamide] showed an IC50 of 8 nM.
With [2H]C([2H])(Nc1n[nH]c2cc(Cl)c(C(C)(C)C)cc12)c1nc(C(F)F)c(C(=O)NC2CN(C(=O)C=C)C2)n1C(C)C [Example 36, N-(1-acryloylazetidin-3-yl)-2-(((5-(tert-butyl)-6-chloro-1H-indazol-3-yl)amino)methyl-d2)-4-(difluoromethyl)-1-isopropyl-1H-imidazole-5-carboxamide] the IC50 was 19 nM.
For C=CC(=O)N1CC(NC(=O)c2cnc(CNc3n[nH]c4cc(Cl)c(C)cc34)n2C)C1 [Example 37, N-(1-acryloylazetidin-3-yl)-2-(((6-chloro-5-methyl-1H-indazol-3-yl)amino)methyl)-1-methyl-1H-imidazole-5-carboxamide], the IC50 was 5480 nM.
C=CC(=O)N1CC(NC(=O)c2cnc(CNc3n[nH]c4cc(Cl)c(C=C)cc34)n2C)C1 [Example 38, N-(1-acryloylazetidin-3-yl)-2-(((6-chloro-5-vinyl 1H-indazol-3-yl)amino)methyl)-1-methyl-1H-imidazole-5-carboxamide] showed an IC50 of 2170 nM.
C=CC(=O)N1CC(NC(=O)c2cnc(CNc3n[nH]c4cc(Cl)c(CC)cc34)n2C)C1 [Example 39, N-(1-acryloylazetidin-3-yl)-2-(((6-chloro-5-ethyl-1H-indazol-3-yl)amino)methyl)-1-methyl-1H-imidazole-5-carboxamide] showed an IC50 of 870 nM.
C=CC(=O)N1CC(NC(=O)c2cnc(CNc3n[nH]c4cc(Cl)c(C(C)(C)C)nc34)n2C)C1 [Example 40, N-(1-acryloylazetidin-3-yl)-2-(((5-(tert-butyl)-6-chloro-1H-pyrazolo[4,3-b]pyridin-3-yl)amino)methyl)-1-methyl-1H-imidazole-5-carboxamide] was tested, and the IC50 was 27 nM.
C=CC(=O)N1CC(NC(=O)c2c(C)nc(CNc3n[nH]c4cc(C)c(C(C)(C)C)cc34)n2C)C1 [Example 41, N-(1-acryloylazetidin-3-yl)-2-(((5-(tert-butyl)-6-methyl-1H-indazol-3-yl)amino)methyl)-1,4-dimethyl-1H-imidazole-5-carboxamide] showed an IC50 of 14 nM.
C=CC(=O)N1CC(NC(=O)c2c(C)nc(CNc3n[nH]c4ccc(C(C)(C)C)cc34)n2C(C)C)C1 [Example 42, N-(1-acryloylazetidin-3-yl)-2-(((5-(tert-butyl)-1H-indazol-3-yl)amino)methyl)-1-isopropyl-4-methyl-1H-imidazole-5-carboxamide] showed an IC50 of 68 nM.
Work on C=CC(=O)N1CC(NC(=O)c2c(Cl)nc(CNc3n[nH]c4cc(Cl)c(C(=C)C(F)(F)F)cc34)n2C(C)C)C1 [Example 43, N-(1-acryloylazetidin-3-yl)-4-chloro-2-(((6-chloro-5-(3,3,3-trifluoroprop-1-en-2-yl)-1H-indazol-3-yl)amino)methyl)-1-isopropyl-1H-imidazole-5-carboxamide] yielded an IC50 of 809 nM.
In the case of C=CC(=O)N1CC(NC(=O)c2c(Cl)nc(CNc3n[nH]c4cc(Cl)c(C5(C(F)(F)F)CC5)cc34)n2C(C)C)C1 [Example 44, N-(1-acryloylazetidin-3-yl)-4-chloro-2-(((6-chloro-5-(-(trifluoromethyl)cyclopropyl)-1H-indazol-3-yl)amino)methyl)-1-isopropyl-1H-imidazole-5-carboxamide], the IC50 is reported as 180 nM.
C=CC(=O)N1CC(NC(=O)c2c(Cl)nc(CNc3n[nH]c4cc(Cl)c(C(C)C)cc34)n2C(C)C)C1 [Example 45, N-(1-acryloylazetidin-3-yl)-4-chloro-2-(((6-chloro-5-isopropyl-1H-indazol-3-yl)amino)methyl)-1-isopropyl-1H-imidazole-5-carboxamide] gave an IC50 of 24 nM.
For C=CC(=O)NC1CN(C(=O)c2c(C)nc(CNc3n[nH]c4cc(Cl)c(C(C)(C)C)cc34)n2C)C1 [Example 46, N-(1-(2-(((5-(tert-butyl)-6-chloro-1H-indazol-3-yl)amino)methyl)-1,4-dimethyl-1H-imidazole-5-carbonyl)azetidin-3-yl) acrylamide], the IC50 was 92 nM.
C=CC(=O)N1CCC(NC(=O)c2c(C)nc(CNc3n[nH]c4cc(Cl)c(C(C)(C)C)cc34)n2C)CC1 [Example 47, N-(1-acryloylpiperidin-4-yl)-2-(((5-(tert-butyl)-6-chloro-1H-indazol-3-yl)amino)methyl)-1,4-dimethyl-1H-imidazole-5-carboxamide] gave an IC50 of 1730 nM.
Molecule C=CC(=O)N1CCC(NC(=O)c2c(C)nc(CNc3n[nH]c4cc(Cl)c(C(C)(C)C)cc34)n2C)C1 (centres unmarked) [Example 48, N-(1-acryloylpyrrolidin-3-yl)-2-(((5-(tert-butyl)-6-chloro-1H-indazol-3-yl)amino)methyl)-1,4-dimethyl-1H-imidazole-5-carboxamide] has an IC50 of 126 nM.
Molecule C=CC(=O)N1CC(N(C)C(=O)c2c(C)nc(CNc3n[nH]c4cc(Cl)c(C(C)(C)C)cc34)n2C)C1 [Example 49, N-(1-acryloylazetidin-3-yl)-2-(((5-(tert-butyl)-6-chloro-1H-indazol-3-yl)amino)methyl)-N,1,4-trimethyl-1H-imidazole-5-carboxamide] has an IC50 of 208 nM.
C=CC(=O)N1CCN(C(=O)c2c(C)nc(CNc3n[nH]c4cc(Cl)c(C(C)(C)C)cc34)n2C)CC1 [Example 50, 1-(4-(2-(((5-(Tert-butyl)-6-chloro-1H-indazol-3-yl)amino)methyl)-1,4-dimethyl-1H-imidazole-5-carbonyl)piperazin-1-yl)prop-2-en-1-one] showed an IC50 of 4280 nM.
Work on C=CC(=O)N(C)C1CN(C(=O)c2c(C)nc(CNc3n[nH]c4cc(Cl)c(C(C)(C)C)cc34)n2C)C1 [Example 51, N-(1-(2-(((5-(tert-butyl)-6-chloro-1H-indazol-3-yl)amino)methyl)-1,4-dimethyl-1H-imidazole-5-carbonyl)azetidin-3-yl)-N-methylacrylamide] yielded an IC50 of 42 nM.
C=CC(=O)N1CC(NC(=O)c2c(C)nc(CNc3n[nH]c4cc(Cl)c(C(C)(C)C)cc34)n2C)C(F)(F)C1 (centres unmarked) [Example 53, N-(1-acryloyl-4,4-difluoropyrrolidin-3-yl)-2-(((5-(tert-butyl)-6-chloro-1H-indazol-3-yl)amino)methyl)-1,4-dimethyl-1H-imidazole-5-carboxamide] gave an IC50 of 42 nM.
C=CC(=O)N1C[C@H](NC(=O)c2c(C)nc(CNc3n[nH]c4cc(Cl)c(C(C)(C)C)cc34)n2C)C2(CC2)C1 [Example 54, (R)-N-(5-acryloyl-5-azaspiro[2.4]heptan-7-yl)-2-(((5-(tert-butyl)-6-chloro-1H-indazol-3-yl)amino)methyl)-1,4-dimethyl-1H-imidazole-5-carboxamide] showed an IC50 of 301 nM.
C=CC(=O)N1C[C@@H](C)[C@@H](NC(=O)c2c(C)nc(CNc3n[nH]c4cc(Cl)c(C(C)(C)C)cc34)n2C)C1 [Example 55, N-((3R,4R)-1-acryloyl-4-methylpyrrolidin-3-yl)-2-(((5-(tert-butyl)-6-chloro-1H-indazol-3-yl)amino)methyl)-1,4-dimethyl-1H-imidazole-5-carboxamide] gave an IC50 of 24 nM.
C=CC(=O)N1C[C@@H](O)[C@@H](NC(=O)c2c(C)nc(CNc3n[nH]c4cc(Cl)c(C(C)(C)C)cc34)n2C)C1 [Example 56, N-((3S,4R)-1-acryloyl-4-hydroxypyrrolidin-3-yl)-2-(((5-(tert-butyl)-6-chloro-1H-indazol-3-yl)amino)methyl)-1,4-dimethyl-1H-imidazole-5-carboxamide] gave an IC50 of 198 nM.
C=CC(=O)N1C[C@@H](F)[C@@H](NC(=O)c2c(C)nc(CNc3n[nH]c4cc(Cl)c(C(C)(C)C)cc34)n2C)C1 [Example 57, N-((3S,4R)-1-acryloyl-4-fluoropyrrolidin-3-yl)-2-(((5-(tert-butyl)-6-chloro-1H-indazol-3-yl)amino)methyl)-1,4-dimethyl-1H-imidazole-5-carboxamide] was tested, and the IC50 was 324 nM.
With C=CC(=O)N1C[C@@H](CO)[C@@H](NC(=O)c2c(C)nc(CNc3n[nH]c4cc(Cl)c(C(C)(C)C)cc34)n2C)C1 [Example 58, N-((3R,4R)-1-acryloyl-4-(hydroxymethyl)pyrrolidin-3-yl)-2-(((5-(tert-butyl)-6-chloro-1H-indazol-3-yl)amino)methyl)-1,4-dimethyl-1H-imidazole-5-carboxamide] the IC50 was 28 nM.
